According to the supplement of paper PMC13380429:
± gives the standard deviation of the averaged measurements.

Legend:
Details in all cases: 72 h
Caco-2 [1] = experiment: relative viability EC50 (midpoint between 100% and the lowest measured viability); higher = less toxic
U2OS [2] = experiment: as above
HepG2 [3] = experiment: as above
Vero E6 [4] = experiment: as above
Calu-3 [5] = experiment: as above
Caco-2 [6] = experiment: drug sensitivity score (DSS) for viability; higher = more toxic; extreme values may be limits of the assay
U2OS [7] = experiment: as above
HepG2 [8] = experiment: as above
Vero E6 [9] = experiment: as above
Calu-3 [10] = experiment: as above
Caco-2 [11] = experiment: cell viability relative to DMSO; higher = less toxic
U2OS [12] = experiment: as above
HepG2 [13] = experiment: as above
Vero E6 [14] = experiment: as above
Calu-3 [15] = experiment: as above

Row | SMILES | relative viability EC50 (Caco-2 [1]) | relative viability EC50 (U2OS [2]) | relative viability EC50 (HepG2 [3]) | relative viability EC50 (Vero E6 [4]) | relative viability EC50 (Calu-3 [5]) | drug sensitivity score (Caco-2 [6]) | drug sensitivity score (U2OS [7]) | drug sensitivity score (HepG2 [8]) | drug sensitivity score (Vero E6 [9]) | drug sensitivity score (Calu-3 [10]) | cell viability (Caco-2 [11]; 1 nM) | cell viability (Caco-2 [11]; 10 nM) | cell viability (Caco-2 [11]; 100 nM) | cell viability (Caco-2 [11]; 1000 nM) | cell viability (Caco-2 [11]; 10000 nM) | cell viability (U2OS [12]; 1 nM) | cell viability (U2OS [12]; 10 nM) | cell viability (U2OS [12]; 100 nM) | cell viability (U2OS [12]; 1000 nM) | cell viability (U2OS [12]; 10000 nM) | cell viability (HepG2 [13]; 1 nM) | cell viability (HepG2 [13]; 10 nM) | cell viability (HepG2 [13]; 100 nM) | cell viability (HepG2 [13]; 1000 nM) | cell viability (HepG2 [13]; 10000 nM) | cell viability (Vero E6 [14]; 1 nM) | cell viability (Vero E6 [14]; 10 nM) | cell viability (Vero E6 [14]; 100 nM) | cell viability (Vero E6 [14]; 1000 nM) | cell viability (Vero E6 [14]; 10000 nM) | cell viability (Calu-3 [15]; 1 nM) | cell viability (Calu-3 [15]; 10 nM) | cell viability (Calu-3 [15]; 100 nM) | cell viability (Calu-3 [15]; 1000 nM) | cell viability (Calu-3 [15]; 10000 nM)
1 | COC(=O)C1=C(C)NC(C)=C([N+](=O)[O-])[C@@H]1c1ccccc1C(F)(F)F (racemic) [BAY-K-8644-(+/-)] | > 10 µM | > 10 µM | > 10 µM | > 10 µM | > 10 µM | 0 | 0 | 0 | 0 | 0 | 89.8 ± 1.6% | 94.5 ± 2.3% | 94.3 ± 1.8% | 106 ± 4.2% | 93.4 ± 3.4% | 95.9 ± 0.28% | 95.9 ± 4.4% | 98.8 ± 4.9% | 97.9 ± 4.7% | 96.2 ± 0.85% | 99.8 ± 1.3% | 93.6 ± 3.2% | 95.2 ± 1.8% | 104 ± 10% | 94.25 ± 0.21% | 95 ± 1.1% | 97.9 ± 1.4% | 99.4 ± 4.5% | 100 ± 2% | 101 ± 5.7% | 101 ± 8.4% | 99.4 ± 2.1% | 99.9 ± 7.6% | 100 ± 6.7% | 98.5 ± 3.2%
2 | CCOC(=O)C1=C(C)NC(C)=C(C(=O)OC)[C@@H]1c1cccc([N+](=O)[O-])c1 (racemic) [nitrendipine] | > 10 µM | > 10 µM | > 10 µM | > 10 µM | > 10 µM | 0 | 0 | 0 | 0 | 0 | 81.3% | 92.4% | 96.2% | 90.2% | 82.9% | 98.5% | 96.9% | 98.7% | 95.4% | 95.6% | 108% | 102% | 89% | 104% | 92.7% | 102% | 106% | 98.5% | 105% | 103% | 89.5% | 92.3% | 105% | 86.5% | 87.1%
3 | CCOc1ccccc1C(=O)O [2-ethoxybenzoic-acid] | > 10 µM | > 10 µM | > 10 µM |  | > 10 µM | 0 | 0 | 0 |  | 0 | 102% | 93.1% | 95.5% | 97.9% | 93.9% | 95.8% | 99.6% | 93.7% | 94.8% | 98.7% | 111% | 107% | 93.5% | 101% | 91.7% |  |  |  |  |  | 113% | 99.9% | 97.1% | 99.6% | 108%
4 | Cc1noc(-c2ccc(-c3ccc(CC(=O)O)cc3)cc2)c1NC(=O)O[C@H](C)c1ccccc1 [AM095] | > 10 µM | > 10 µM | > 10 µM |  | > 10 µM | 0 | 0 | 0 | 3.9 | 0 | 91.2% | 97.4% | 93.3% | 95.2% | 94.9% | 94.9% | 95.3% | 99% | 93% | 97.5% | 87.3% | 104% | 99.8% | 101% | 91.6% | 95% | 98% | 91.4% | 81.3% | 64.2% | 114% | 95.7% | 95.7% | 98.3% | 102%
5 | O=c1ccc2c(OCCCCOc3ccccc3)c3ccoc3cc2o1 [AS-77] | > 10 µM | > 10 µM | > 10 µM |  | > 10 µM | 0 | 0 | 0 |  | 0 | 97% | 99% | 96.6% | 105% | 89.7% | 98.1% | 102% | 101% | 104% | 100% | 106% | 99.4% | 98.3% | 94.4% | 90% |  |  |  |  |  | 97.5% | 92.5% | 95.8% | 102% | 98.4%
6 | N[C@H]1CC[C@H](N[C@@H]2C[C@H]2c2ccccc2)CC1 [ORY-1001] | > 10 µM | > 10 µM |  | > 10 µM | > 10 µM | 0 | 0 |  | 0 | 0 | 93.7% | 99.5% | 93.2% | 100% | 100% | 96.3% | 98.7% | 97.4% | 101% | 98.4% |  |  |  |  |  | 97.7% | 103% | 99% | 96.3% | 103% | 93.2% | 105% | 94.1% | 99.3% | 95.3%
7 | O=C(Nc1ccccc1)[C@]12C[C@H]1/C(=N\O)c1ccccc1O2 [PHCCC] | > 10 µM | > 10 µM |  | > 10 µM | > 10 µM | 0 | 0 |  | 0 | 0 | 104% | 99% | 93.4% | 107% | 94.5% | 97.4% | 99.9% | 95.9% | 101% | 104% |  |  |  |  |  | 107% | 91.5% | 102% | 92.8% | 103% | 102% | 102% | 90.9% | 96.4% | 93%
8 | COCC[n+]1c2c(n(Cc3cnccn3)c1C)C(=O)c1ccccc1C2=O [YM-155] | 0.0039 µM | 0.0091 µM | 0.0587 µM |  | 0.0051 µM | 40.1 | 37.2 | 27 | 4 | 39 | 81.5% | 27.8% | 3.8% | 1.7% | 1.7% | 100% | 44.3% | 1.5% | -0.2% | -0.1% | 103% | 102% | 21% | 3% | 0.4% | 90.7% | 97.4% | 87.5% | 85.2% | 52% | 83.9% | 34.4% | 3% | 0.5% | 0.4%
9 | CC(=O)Nc1ccccc1 [acetanilide] | > 10 µM | > 10 µM |  | > 10 µM | > 10 µM | 0 | 0 |  | 0 | 0 | 98.1% | 101% | 94.5% | 107% | 94.4% | 105% | 99% | 103% | 99.1% | 98.9% |  |  |  |  |  | 109% | 93.7% | 102% | 103% | 104% | 95% | 94.6% | 103% | 98.2% | 99.8%
10 | Sc1nc2ccccc2s1 [benzo[d]thiazole-2(3H)-thione] | > 10 µM | > 10 µM | > 10 µM |  | > 10 µM | 0 | 0 | 0 |  | 0 | 96.5% | 101% | 97.1% | 103% | 94.8% | 100% | 103% | 94.8% | 102% | 97.2% | 99.8% | 101% | 119% | 101% | 108% |  |  |  |  |  | 76.6% | 91.1% | 96.7% | 96.3% | 93.1%
11 | N[C@@H](C(=O)N[C@@H]1C(=O)N2C(C(=O)O)=C(Cl)CC[C@H]12)c1ccccc1 [loracarbef] | > 10 µM | > 10 µM | > 10 µM |  | > 10 µM | 0 | 0 | 0 |  | 0 | 107% | 104% | 95.9% | 91.5% | 98.2% | 93.6% | 102% | 95.7% | 100% | 101% | 100% | 100% | 96.3% | 92% | 97.6% |  |  |  |  |  | 88.5% | 102% | 96.6% | 102% | 99%
12 | Cc1ccc2nc(N)[nH]c(=O)c2c1Sc1ccncc1 [nolatrexed] | > 10 µM | > 10 µM |  | > 10 µM | > 10 µM | 0.4 | 0 | 1.1 | 0.5 | 0 | 98.2% | 98.7% | 101% | 104% | 80.3% | 94.3% | 99.3% | 92.4% | 101% | 94.3% | 107% | 99.5% | 97.1% | 101% | 71.6% | 103% | 97.2% | 99.8% | 98.9% | 83.1% | 97.9% | 93.4% | 85.8% | 96.9% | 99.1%
13 | CCCC[C@H]1C(=O)N(c2ccccc2)N(c2ccc(O)cc2)C1=O [oxyphenbutazone] | 2.41 µM | 2.83 µM | 2.66 µM |  | > 10 µM | 3.8 | 5.6 | 6 | 2.5 | 0 | 99.6% | 89.2% | 96.7% | 94.9% | 44.2% | 101% | 95.8% | 100% | 96% | 9.3% | 103% | 102% | 105% | 94.2% | 7.9% | 105% | 107% | 109% | 101% | 50.3% | 91.2% | 104% | 103% | 110% | 97.6%
14 | C[n+]1ccccc1C=NO [pralidoxime] | > 10 µM | > 10 µM | > 10 µM |  | > 10 µM | 0 | 0 | 0 |  | 0 | 103% | 94.5% | 105% | 99.8% | 95% | 100% | 97.4% | 103% | 98.4% | 103% | 106% | 115% | 102% | 101% | 89.7% |  |  |  |  |  | 96.6% | 93.1% | 93.8% | 91.3% | 110%
15 | Cc1cncc(CN2CCC(=C3c4ccc(Cl)cc4CCc4cccnc43)CC2)c1 [rupatadine] | > 10 µM | > 10 µM |  | > 10 µM | > 10 µM | 0.7 | 0 | 1.9 | 0 | 0 | 98.3% | 102% | 93.8% | 90.2% | 88.3% | 101% | 91.9% | 99.5% | 95.6% | 90.3% | 112% | 100% | 99.2% | 95.5% | 71.9% | 99% | 102% | 96.8% | 100% | 102% | 105% | 97.1% | 99.9% | 109% | 113%
16 | CCCCOC(=O)c1ccccc1Nc1cccc(C(F)(F)F)c1 [ufenamate] | > 10 µM | > 10 µM |  | > 10 µM | > 10 µM | 0 | 0 |  | 0 | 0 | 96.2% | 102% | 94.4% | 93.7% | 98.1% | 91.7% | 98.7% | 92.4% | 100% | 108% |  |  |  |  |  | 110% | 104% | 106% | 106% | 98.5% | 105% | 87.3% | 91.8% | 93.7% | 94.7%
